Assay results taken from patent publication US10774064B2 (Cadent Therapeutics, Inc., priority 2016, dated 2020).

target: T1, small-conductance Ca2+-activated K+ channels (SK channels, subtype 2) (Homo sapiens, UniProt Q9H2S1); test: whole-cell patch-clamp of ionic current through SK2 channels in HEK293 cells (SC100); format: cell-based; settings: concentration that increases the basal current by 100%; HEK293 cells expressing SK2 channels
T1 construct: expressed in transfected cells; host or cells: HEK293
In short: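 SC100, the concentration doubling basal current (a 100% increase), was taken from SK2 currents recorded by whole-cell patch-clamp in SK2-expressing HEK293 cells.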

Row | SC100 | SMILES
1 | + (+ means >1 uM) | Cc1cc(C)n(-c2cc(NCC(C)(C)C)cc(NC3CCC(F)(F)CC3)n2)n1 [Compound 234, N2-(4,4-difluorocyclohexyl)-6-(3,5-dimethyl-1H-pyrazol-1-yl)-N4-neopentylpyridine-2,4-diamine]
2 | + (+ means >1 uM) | Cc1cc(NC2CCC(F)(F)CC2)nc(-n2ccc(CF)n2)n1 [Compound 223]
3 | ++ (++ means 200 nM-1000 nM) | Cc1ccn(-c2nc(NC3CCC(F)(F)CC3)cc(NC3CC(C)(C)C3)n2)n1 [Compound 156, N4-(4,4-difluorocyclohexyl)-N6-(3,3-dimethylcyclobutyl)-2-(3-methyl-1H-pyrazol-1-yl)pyrimidine-4,6-diamine]
4 | + (+ means >1 uM) | COC(=O)N1CC(Oc2cc(NC3CCC(F)(F)CC3)nc(-c3nc(C(C)O)cs3)n2)C1 (stereo not shown) [Compound 344, methyl 3-((6-((4,4-difluorocyclohexyl)amino)-2-(4-(1-hydroxyethyl)thiazol-2-yl)pyrimidin-4-yl)oxy)azetidine-1-carboxylate]
5 | ++ (++ means 200 nM-1000 nM) | Cc1csc(-c2nc(NC3CCC(F)(F)CC3)cc(N3CCOCC3)n2)n1 [Compound 320, N-(4,4-difluorocyclohexyl)-2-(4-methylthiazol-2-yl)-6-morpholinopyrimidin-4-amine]
6 | + (+ means >1 uM) | CC(O)c1csc(-c2nc(NC3CCC(F)(F)CC3)cc(OC3CN(C(=O)C(C)(C)C)C3)n2)n1 (stereo not shown) [Compound 337]
7 | ++ (++ means 200 nM-1000 nM) | Cc1cc(C)n(-c2cc(CF)cc(NC3CCC(F)(F)CC3)n2)n1 [Compound 229, N-(4,4-difluorocyclohexyl)-6-(3,5-dimethyl-1H-pyrazol-1-yl)-4-(fluoromethyl)pyridin-2-amine]
8 | + (+ means >1 uM) | COC(=O)N1CCC1COc1cc(NC2CCC(F)(F)CC2)nc(-n2ccc(C(F)F)n2)n1 (stereo not shown) [Compound 314, methyl 2-(((6-((4,4-difluorocyclohexyl)amino)-2-(3-(difluoromethyl)-1H-pyrazol-1-yl)pyrimidin-4-yl)oxy)methyl)azetidine-1-carboxylate]
9 | + (+ means >1 uM) | Cc1cc(C)n(-c2nc(NC3CCC(F)(F)C3)cc(C(N)=O)n2)n1 (stereo not shown) [Compound 183, 6-((3,3-difluorocyclopentyl)amino)-2-(3,5-dimethyl-1H-pyrazol-1-yl)pyrimidine-4-carboxamide]
10 | ++ (++ means 200 nM-1000 nM) | CC(C)C(=O)N1CC(Oc2cc(NC3CCC(F)(F)CC3)nc(-n3ccc(CF)n3)n2)C1 [Compound 290, 1-(3-((6-((4,4-difluorocyclohexyl)amino)-2-(3-(fluoromethyl)-1H-pyrazol-1-yl)pyrimidin-4-yl)oxy)azetidin-1-yl)-2-methylpropan-1-one]

same assay, conditions: whole-cell patch-clamp, HEK293 cells expressing SK2 channels; concentration that increases the basal current by 100%

Row | SMILES | SC100 (μM)
11 | Cc1ccn(-c2cc3c(c(NC4CCC(F)(F)CC4)n2)CCCC3)n1 [IN11039-036-P1, N-(4,4-difluorocyclohexyl)-3-(3-methyl-1H-pyrazol-1-yl)-5,6,7,8-tetrahydro isoquinolin-1-amine] | + (+ means >1 uM)
12 | Cc1csc(-c2nc(NC3CCC(F)(F)CC3)cc(N3CCC(CO)C3)n2)n1 (stereo not shown) [IN10882-020-P1] | ++ (++ means 200 nM-1000 nM)
13 | Cc1csc(-c2nc(NC3CCC(F)(F)CC3)cc(N3CCC(N(C)C)CC3)n2)n1 [IN10881-020.P1] | +++ (+++ means <200 nM)
14 | Cc1csc(-c2nc(NC3CCC(F)(F)CC3)cc(NC3COC3)n2)n1 [IN10882-040-P1] | + (+ means >1 uM)
15 | Cc1csc(-c2nc(NC3CCC(F)(F)CC3)cc(N3CCOC(COC(C)C)C3)n2)n1 (stereo not shown) [IN10964-007-P1] | +++ (+++ means <200 nM)
16 | CC(=O)c1cc(NC2CCC(F)(F)CC2)nc(-n2ccc(C(F)(F)F)n2)n1 [IN11053-059-P1, 1-(6-((4,4-difluorocyclohexyl)amino)-2-(3-(trifluoromethyl)-1H-pyrazol-1-yl)pyrimidin-4-yl)ethan-1-one] | + (+ means >1 uM)
17 | Cc1ccn(-c2nc(NC3CCC(F)(F)CC3)nc(N3CCOCC3)n2)n1 [IN10984-079-P1, N-(4,4-difluorocyclohexyl)-4-(3-methyl-1H-pyrazol-1-yl)-6-morpholino-1,3,5-triazin-2-amine] | + (+ means >1 uM)
18 | COC(C)c1cc(NC2CCC(F)(F)CC2)nc(-n2ccc(C(F)(F)F)n2)n1 (stereo not shown) [IN11053-076-P1, N-(4,4-difluorocyclohexyl)-6-(1-methoxyethyl)-2-(3-(trifluoromethyl)-1H-pyrazol-1-yl)pyrimidin-4-amine] | + (+ means >1 uM)

The remaining lines, values ahead:

Row | SC100 (μM) | SMILES
19 | + (+ means >1 uM) | Cc1csc(-c2nc(NC3CCC(F)(F)CC3)cc(OC3CCOC3)n2)n1 (stereo not shown) [IN11079-014-P1]
20 | + (+ means >1 uM) | COc1cc(NC2CCC2)nc(-c2nc(C)cs2)n1 [IN11111-003-P1]
21 | +++ (+++ means <200 nM) | COC(=O)N1CC(Oc2nc(-c3nc(C)cs3)nc(NC3CCC(F)(F)CC3)c2Br)C1 [NSSy5868, methyl 3-((5-bromo-6-((4,4-difluorocyclohexyl)amino)-2-(4-methylthiazol-2-yl)pyrimidin-4-yl)oxy)azetidine-1-carboxylate]
22 | + (+ means >1 uM) | CC(=O)N1CCN(c2cc(-n3ccc(CO)n3)nc(NC3CCC(F)(F)CC3)n2)CC1 [NSSy6931, 1-(4-(2-((4,4-difluorocyclohexyl)amino)-6-(3-(hydroxymethyl)-1H-pyrazol-1-yl)pyrimidin-4-yl)piperazin-1-yl)ethan-1-one]
23 | + (+ means >1 uM) | Cc1ccn(-c2cc(C(O)c3cnco3)cc(NC3CCC(F)(F)CC3)n2)n1 (stereo not shown) [NSSy6846]
24 | ++ (++ means 200 nM-1000 nM) | CC(=O)N1CCN(c2cc(-n3ccc(C(F)(F)F)n3)nc(NC3CCC(F)(F)CC3)n2)CC1 [NSSy6607]
25 | ++ (++ means 200 nM-1000 nM) | CC(=O)N1CCN(c2cc(-n3ccc(C4CC4)n3)nc(NC3CCC(F)(F)CC3)n2)CC1 [NSSy6909, 1-(4-(6-(3-cyclopropyl-1H-pyrazol-1-yl)-2-((4,4-difluorocyclohexyl)amino)pyrimidin-4-yl)piperazin-1-yl)ethan-1-one]
26 | + (+ means >1 uM) | Cc1nsc(-c2nc(NC3CCC(F)(F)CC3)cc(N3CC4(COC4)C3)n2)n1 [NSSy6145]
27 | + (+ means >1 uM) | Cc1csc(-c2nc(N[C@@H]3CCCC[C@H]3O)cc(N3CCOCC3)n2)n1 [IN11140-058-P1]
28 | ++ (++ means 200 nM-1000 nM) | COC(=O)N1CCN(c2cc(-n3ccc(C)n3)nc(NC3CCC(F)(F)CC3)n2)CC1 [NSSy6924, methyl 4-(2-((4,4-difluorocyclohexyl)amino)-6-(3-methyl-1H-pyrazol-1-yl)pyrimidin-4-yl)piperazine-1-carboxylate]
29 | + (+ means >1 uM) | COc1cc(NC2CCC(F)CC2)nc(-n2nc(C)cc2C)n1 (stereo not shown) [IN11055-079-P1]
30 | ++ (++ means 200 nM-1000 nM) | Cc1ccn(-c2cc(COc3cccnn3)cc(NC3CCC(F)(F)CC3)n2)n1 [IN11217-056-P1, N-(4,4-difluorocyclohexyl)-6-(3-methyl-1H-pyrazol-1-yl)-4-((pyridazin-3-yloxy)methyl)pyridin-2-amine]
31 | ++ (++ means 200 nM-1000 nM) | Cc1ccn(-c2nc(NC3CCC(F)(F)CC3)cc(OC3CC(C)(O)C3)n2)n1 (stereo not shown) [NSSy5902, 3-((6-((4,4-difluorocyclohexyl)amino)-2-(3-methyl-1H-pyrazol-1-yl)pyrimidin-4-yl)oxy)-1-methylcyclobutan-1-ol]
32 | + (+ means >1 uM) | Cc1cc(NC2CCC(F)(F)CC2)nc(-n2ccc(C3(N)CC3)n2)n1 [IN11218-026-P1, 2-(3-(1-aminocyclopropyl)-1H-pyrazol-1-yl)-N-(4,4-difluorocyclohexyl)-6-methylpyrimidin-4-amine hydrogen chloride]
33 | + (+ means >1 uM) | Cc1csc(-c2nc(C)cc(NC3CCC(F)(F)CC3)n2)c1 [IN11239-029-P1, N-(4,4-difluorocyclohexyl)-6-methyl-2-(4-methylthiophen-2-yl)pyrimidin-4-amine]
34 | + (+ means >1 uM) | Fc1ccn(-c2cc(N3CC4(COC4)C3)nc(NC3CCC(F)(F)CC3)n2)n1 [NSSy6467]
35 | + (+ means >1 uM) | Cc1noc(-c2cc(N3CCOCC3)cc(NC3CCC(F)(F)CC3)n2)n1 [NSSy5957]
36 | + (+ means >1 uM) | COCc1cc(NC2CCC(F)(F)CC2)nc(-c2nc(C)co2)n1 [NSSy5818, N-(4,4-difluorocyclohexyl)-6-(methoxymethyl)-2-(4-methyloxazol-2-yl)pyrimidin-4-amine]
37 | + (+ means >1 uM) | CC1(O)CC(Oc2cc(-n3ccc(F)n3)nc(NC3CCC(F)(F)CC3)n2)C1 (stereo not shown) [NSSy6464, 3-((2-((4,4-difluorocyclohexyl)amino)-6-(3-fluoro-1H-pyrazol-1-yl)pyrimidin-4-yl)oxy)-1-methylcyclobutan-1-ol]
38 | + (+ means >1 uM) | Cc1ccn(-c2cc(CO)cc(N(C(N)=O)C3CCC(F)(F)CC3)n2)n1 [NSSy6812, 1-(4,4-difluorocyclohexyl)-1-(4-(hydroxymethyl)-6-(3-methyl-1H-pyrazol-1-yl)pyridin-2-yl) urea]
39 | ++ (++ means 200 nM-1000 nM) | COCCOCc1cc(NC2CCC(F)(F)CC2)nc(-n2ccc(C)n2)c1 [IN11125-012-P1]
40 | + (+ means >1 uM) | Cc1csc(-c2cc(N3CCOCC3)nc(NC3CCC(F)(F)CC3)n2)n1 [NSSy6391, N-(4,4-difluorocyclohexyl)-4-(4-methylthiazol-2-yl)-6-morpholinopyrimidin-2-amine]
41 | ++ (++ means 200 nM-1000 nM) | Cc1ccn(-c2cc(C(O)c3ncco3)cc(NC3CCC(F)(F)CC3)n2)n1 (stereo not shown) [NSSy6395]
42 | ++ (++ means 200 nM-1000 nM) | CC(=O)N1CCC(c2cc(NC3CCC(F)(F)CC3)nc(-n3ccc(C)n3)n2)CC1 [NSSy6369]
43 | ++ (++ means 200 nM-1000 nM) | COC[C@@H]1CN(c2cc(NC3CCC(F)(F)CC3)nc(-c3nc(C)cs3)n2)CCO1 [NSSy5795]
